Data on 3 compounds can be found in patent US20220177891A1, “HIPK INHIBITORS AND METHODS OF USE THEREOF” (Board of Regents, The University of Texas System, priority 2019, published 2022).

The target in series [1] is T1, HIPK4 (Homo sapiens, UniProt Q8NE63).
T1 sequence (Q8NE63 1-616): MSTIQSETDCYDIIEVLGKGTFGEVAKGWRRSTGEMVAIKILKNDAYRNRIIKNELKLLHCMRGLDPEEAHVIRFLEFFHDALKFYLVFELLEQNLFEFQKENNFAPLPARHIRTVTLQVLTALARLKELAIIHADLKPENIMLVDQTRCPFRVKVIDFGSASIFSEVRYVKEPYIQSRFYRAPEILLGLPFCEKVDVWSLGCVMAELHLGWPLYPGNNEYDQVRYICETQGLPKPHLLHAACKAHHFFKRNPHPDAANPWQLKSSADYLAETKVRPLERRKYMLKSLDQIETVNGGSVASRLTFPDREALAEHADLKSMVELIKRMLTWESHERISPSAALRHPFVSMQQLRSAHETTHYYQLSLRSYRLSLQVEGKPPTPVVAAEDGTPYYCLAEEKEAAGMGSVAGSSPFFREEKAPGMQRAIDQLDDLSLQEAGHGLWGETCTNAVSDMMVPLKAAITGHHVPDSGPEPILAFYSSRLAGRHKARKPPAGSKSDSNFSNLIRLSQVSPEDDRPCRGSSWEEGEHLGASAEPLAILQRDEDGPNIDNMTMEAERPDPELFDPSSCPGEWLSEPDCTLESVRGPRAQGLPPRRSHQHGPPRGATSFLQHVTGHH
Briefly: Western blot of HIPK4 protein level with VIB-MDA compounds (FIG. 9). It is filed as cell-based. Further details: endogenous in cells; context is GI101A and derivative cell lines. The protocol:
(§1) Briefly, desired cells were harvested and lysed. The protein concentration in the lysates was quantified using the Bradford method with bovine serum albumin as standard. An equal amount of protein of 49 μg was separated by electrophoresis on SDS-polyacrylamide gels and transferred to PVDF membranes. After blocking with 5% nonfat milk, the membranes were incubated with the primary antibodies overnight at the following dilution: HIPK4 (1:500) and β-actin (1:20000). Subsequently, the membranes were incubated with appropriate secondary antibodies. The immunoreactive bands were visualized using enhanced chemiluminescence, as recommended by the manufacturer.

Series [2] has as its system MDA-MB-231 cells overexpressing HIPK4. Description: Transwell migration of HIPK4-overexpressing MDA-MB-231 cells (FIG. 11A). It is filed as cell-based, human. The note with it: MDA-MB-231 cells overexpressing HIPK4, FIG. 11A. The protocol:
The in vitro migration and invasion assay was carried out using transwell chamber. Briefly, 0.2-2.0×10^5 cells/ml cells were suspended in serum-free medium with 5% bovine serum albumin and then were placed in the upper compartment, and medium with 5% fetal bovine serum was added in the lower compartment. Following incubation in cell culture incubator for 6-32 h, non-migratory and noninvasive cells on the upper surface were gently removed by a cotton swab. The cells on the bottom of membrane were stained with cell stain solution at room temperature for 10 min. Images of the invading cells were taken with at least three individual fields per chamber by a fluorescent inverted microscope (Olympus IX81 Motorized Inverted Microscope, Japan). The chambers were transferred to an empty well, and 200 μL of Extraction Solution was added to each well. After incubating 10 minutes on an orbital shaker, 100 μL of solution was transferred from each well to a 96-well microtiter plate for measurement under OD 560 nm in a plate reader.
(§2) Cells were plated into 6-well plate and grown for 1-2 days until reaching 70-80% confluence. Transfection of cells with HIPK4 cDNA was performed utilizing FuGENE® HD Transfection reagent. An amount of 2.5 μg of DNA and 7.5 μL of FuGENE® HD reagent were separately pipeted into 140 μL opti-MEM medium; incubate the FuGENE® HD transfection reagent/DNA mixture for 10-15 minutes at room temperature. Then the mixture was applied onto cells for 7 h in cell culture incubator. The transfection was stopped by replacing medium with complete medium. After 48 h, cells were harvest for further analysis.

Series [3] addresses T1, HIPK4. Briefly: HIPK4 kinase inhibition by VIB-MDA compounds (FIG. 5, 6). The note with it: for potency and specificity for HIPK4: Table 1, FIG. 5. It is filed as biochemical.
Another series relates to HIPK and FAK/pFAK. Description: Western blot of HIPK4-overexpressing triple negative breast cancer cells (FIG. 11B). In kind it is cell-based, human. The protocol:
as §2, §1
Background: In western blotting, separated proteins are transferred to a membrane and probed.

The target of series [4] is Breast Tumor Kinase (BRK) (Homo sapiens, UniProt Q13882). Description: Breast Tumor Kinase inhibition (FIG. 5). In kind it is biochemical.
Breast Tumor Kinase (BRK), sequence (Q13882 whole entry, species assumed): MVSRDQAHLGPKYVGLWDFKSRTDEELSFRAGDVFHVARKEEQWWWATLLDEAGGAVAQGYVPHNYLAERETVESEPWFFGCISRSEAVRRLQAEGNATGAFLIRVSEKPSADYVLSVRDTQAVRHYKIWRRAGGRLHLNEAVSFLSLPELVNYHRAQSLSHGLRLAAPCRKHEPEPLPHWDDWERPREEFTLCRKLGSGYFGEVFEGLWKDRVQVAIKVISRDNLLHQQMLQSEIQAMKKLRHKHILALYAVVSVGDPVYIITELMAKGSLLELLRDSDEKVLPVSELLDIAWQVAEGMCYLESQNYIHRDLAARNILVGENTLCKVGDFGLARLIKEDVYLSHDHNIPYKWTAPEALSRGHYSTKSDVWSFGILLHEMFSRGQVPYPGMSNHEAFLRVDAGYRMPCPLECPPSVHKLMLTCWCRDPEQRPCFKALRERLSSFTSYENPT
A further series deals with T2, DDR2 (Tyro10) (Homo sapiens, UniProt Q16832).
T2 sequence (Q16832 22-855): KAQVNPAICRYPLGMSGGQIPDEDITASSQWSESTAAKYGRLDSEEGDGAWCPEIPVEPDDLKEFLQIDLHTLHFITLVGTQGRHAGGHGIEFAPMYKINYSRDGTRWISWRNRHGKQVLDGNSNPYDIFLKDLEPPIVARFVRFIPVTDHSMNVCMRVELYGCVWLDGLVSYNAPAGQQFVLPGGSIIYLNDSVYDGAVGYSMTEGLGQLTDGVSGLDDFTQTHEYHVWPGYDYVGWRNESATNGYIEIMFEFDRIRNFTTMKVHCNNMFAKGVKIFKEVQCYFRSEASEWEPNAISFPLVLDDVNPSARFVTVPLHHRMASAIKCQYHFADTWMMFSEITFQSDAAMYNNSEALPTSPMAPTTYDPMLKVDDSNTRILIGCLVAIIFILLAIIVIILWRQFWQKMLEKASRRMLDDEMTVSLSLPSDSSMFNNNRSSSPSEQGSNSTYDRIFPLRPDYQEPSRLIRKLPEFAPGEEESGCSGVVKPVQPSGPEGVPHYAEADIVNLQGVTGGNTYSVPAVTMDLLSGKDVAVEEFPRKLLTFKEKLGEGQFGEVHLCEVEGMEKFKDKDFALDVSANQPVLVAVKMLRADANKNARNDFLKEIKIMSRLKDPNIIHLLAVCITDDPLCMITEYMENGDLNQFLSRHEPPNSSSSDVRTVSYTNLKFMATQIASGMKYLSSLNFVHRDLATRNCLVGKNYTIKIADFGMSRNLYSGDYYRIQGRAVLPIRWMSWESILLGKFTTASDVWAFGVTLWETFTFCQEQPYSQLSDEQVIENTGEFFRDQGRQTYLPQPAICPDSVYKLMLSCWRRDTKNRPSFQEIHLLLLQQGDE
Description: DDR2 kinase inhibition by VIB-MDA compounds (FIG. 5, 6B). It is filed as biochemical.

A further series in a line: Transport into cells. It is filed as cell-based.
A further series deals with T3, Tyro3 (Homo sapiens, UniProt Q06418).
T3 sequence (Q06418 41-890): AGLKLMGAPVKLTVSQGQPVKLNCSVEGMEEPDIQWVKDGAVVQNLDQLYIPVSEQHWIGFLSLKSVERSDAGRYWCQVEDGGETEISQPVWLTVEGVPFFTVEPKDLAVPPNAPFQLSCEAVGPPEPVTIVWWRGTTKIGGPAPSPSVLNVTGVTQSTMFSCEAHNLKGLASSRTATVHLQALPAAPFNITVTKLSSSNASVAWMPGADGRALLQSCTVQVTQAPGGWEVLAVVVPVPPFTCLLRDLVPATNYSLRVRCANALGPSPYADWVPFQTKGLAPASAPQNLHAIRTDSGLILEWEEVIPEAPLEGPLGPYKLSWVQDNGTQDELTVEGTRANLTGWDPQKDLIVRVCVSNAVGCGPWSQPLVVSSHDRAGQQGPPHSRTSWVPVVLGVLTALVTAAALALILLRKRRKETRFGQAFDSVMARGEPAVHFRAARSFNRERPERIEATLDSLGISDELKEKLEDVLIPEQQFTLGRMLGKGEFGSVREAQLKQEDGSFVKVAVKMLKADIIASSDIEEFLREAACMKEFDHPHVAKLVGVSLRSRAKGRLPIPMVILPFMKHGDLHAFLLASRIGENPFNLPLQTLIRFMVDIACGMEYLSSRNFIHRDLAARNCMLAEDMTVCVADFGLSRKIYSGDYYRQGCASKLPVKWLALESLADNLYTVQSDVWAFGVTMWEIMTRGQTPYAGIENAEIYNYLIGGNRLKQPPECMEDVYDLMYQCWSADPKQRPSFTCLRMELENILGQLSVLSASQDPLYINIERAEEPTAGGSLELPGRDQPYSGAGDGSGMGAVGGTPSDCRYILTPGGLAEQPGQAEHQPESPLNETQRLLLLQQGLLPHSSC
Briefly: Tyro3 kinase inhibition (FIG. 5). It is filed as biochemical.

`CNC(=O)c1cc(Oc2ccc(NC(=O)c3nc(SC)[nH]c3-c3ccc(F)cc3)cc2)ccn1` [VIB-MDA-001]: the “inhibition of HIPK4 expression” value at HIPK4 [1] is “Selective inhibition”. Besides, the “migration from HIPK-overexpression” value in series [2] is given as “significantly inhibit”. The “potency and specificity for HIPK4” value at HIPK4 [3] was “extremely potent and highly specific for HIPK4”. In addition, the “expression of HIPK and FAK/pFAK” value in the series with HIPK and FAK/pFAK was “significantly inhibit”.
As for `CNC(=O)c1cc(Oc2ccc(NC(=O)c3nc(SC)oc3-c3ccc(F)cc3)cc2)ccn1` [VIB-MDA-002], in series [4], the “potency for BRK relative to the other VIB-MDA compounds” value is listed as “highest potency”. Further, the “inhibition of HIPK4 expression” value against HIPK4 [1] is “Selective inhibition”. For the same compound, the “migration from HIPK-overexpression” value in series [2] is given as “significantly inhibit”. The “potency for DDR2 relative to the other VIB-MDA compounds” value at DDR2 (Tyro10) (FIG. 5) is “highest potency”. Besides, the half-inhibitory concentration (IC50) was 100 nM at DDR2 (Tyro10) (FIG. 6B, second most inhibited kinase) and 15 nM on HIPK4 [3] (FIG. 6B). Moreover, the transport into cells result in “Transport into cells” is listed as “excellent transport into cells”. Also, the “potency for HIPK4 relative to the other VIB-MDA compounds” value at HIPK4 [3] (FIG. 5) was “highest potency”. Moreover, the “blocking HIPK4 kinase activity” value at HIPK4 [3] (FIG. 6) is listed as “high efficacy”. In addition, the “potency and specificity for HIPK4” value on HIPK4 [3] was “extremely potent and highly specific for HIPK4”. Further, the “specificity for HIPK4 compared to Sorafenib” value at HIPK4 [3] (kinase inhibition profile, FIG. 6A) was “greatly increased specificity”. The “expression of HIPK and FAK/pFAK” value with HIPK and FAK/pFAK is “significantly inhibit”. Further, on Tyro3, the “potency for Tyro3 relative to the other VIB-MDA compounds” value was “highest potency”.
As to `CNC(=O)c1cc(Oc2ccc(NC(=O)c3nc(S(C)(=O)=O)sc3-c3ccc(F)cc3)cc2)ccn1` [VIB-MDA-003], the “inhibition of HIPK4 expression” value against HIPK4 [1] is “Selective inhibition”. Besides, the “migration from HIPK-overexpression” value in series [2] is reported as “significantly inhibit”. In addition, the “potency and specificity for HIPK4” value on HIPK4 [3] was “extremely potent and highly specific for HIPK4”. Also, the “expression of HIPK and FAK/pFAK” value in the series with HIPK and FAK/pFAK is on record as “significantly inhibit”.

What is called IC50 is the concentration that gives 50% inhibition.
